Reference: patent publication EP0023093A1, “Penicillanic acid derivatives, their preparation and their pharmaceutical compositions with a penicillin or cephalosporin” (BEECHAM GROUP PLC, priority 1979, dated 1981)

How the values were obtained:
Type in all cases: cell-based
Proteus C889 = test: standard MIC test, compound alone and in combination with ampicillin
Staph Russell = test: as above
[1] = tested on: 7 cephalosporinase - producing E. coli strains; test: standard MIC test, cephaloridine with synergist; conditions: Escherichia coli, read-out: Geometric Mean (MIC)
From the text: A composition of sodium 6β-methanesulphonyloxypenicillanate and cephaloridine against 7 cephalosporinase - producing E. coli strains results in the following MIC's in a standard test.

[2] = substance alone (the 1st table)
[3] = substance alone (the 2nd table)

| MIC (Proteus C889; [2]) | MIC (Proteus C889; [3]) | MIC (Staph Russell; [2]) | MIC (Staph Russell; [3]) | Compound | MIC [1] |
| --- | --- | --- | --- | --- | --- |
| 1000 µg/mL | > 2000 µg/mL | 62.5 µg/mL | 250 µg/mL | CC1(C)S[C@@H]2[C@H](NC(=O)[C@H](N)c3ccccc3)C(=O)N2[C@H]1C(=O)O [Ampicillin] | – |
| – | > 500 µg/mL | – | 16 µg/mL | CC1(C)S[C@@H]2[C@H](OS(=O)(=O)c3ccc(Br)cc3)C(=O)N2[C@H]1C(=O)O [Calcium 6β-p-bromobenzenzsulphonyloxypenicillanate] | – |
| – | – | – | – | O=C(Cc1cccs1)N[C@@H]1C(=O)N2C(C(=O)[O-])=C(C[n+]3ccccc3)CS[C@H]12 [Cephaloridine] | 152 µg/mL |
| 62.5 µg/mL | – | 4 µg/mL | – | CC1(C)S[C@@H]2[C@H](OS(C)(=O)=O)C(=O)N2[C@H]1C(=O)O [Sodium 6β-methanesulphonyloxypenicillanate] | – |
